Test results reported in US20140221472A1, “USE OF MYRICETIN OR DERIVATIVES THEREOF AS A CATHEPSIN K INHIBITOR” (JILINSHENG JINZIYUAN BIOTECHNOLOGY LTD, priority 2013, published 2014).

Columns and labels:
[1] = cited from earlier work
BALB/C mice = experiment: Maximum tolerated dose acute toxicity test; type: in vivo; settings: 100 g/kg body weight, single gavage, observed 2 weeks
Text: BALB/C mice were bred by Harbin Veterinary Research Institute of Experimental Animal Center, Chinese Academy of Agricultural Sciences, and the animal quality permit number is Heilongjiang-SYXK 2006-032. The selection conditions are age at 9 weeks to 10 weeks, weighing about 20 g, half male and half female.
The animal laboratory had regular air ventilation, good lighting, and constant laboratory room temperature. There were five mice per cage, and they were fed with extruded feed produced specifically for mice, with free access to drinking water.
Firstly, the acute toxicity tests were conducted on to evaluate the safety of myricetin in order to provide the basis for the therapeuticapplication of myricetin. In this study, the maximum tolerated dose acute toxicity test was used. Twenty of BALB/C mice with the healthy body weight about 20 g, half male and half femalewere selected, The clinical intended route of administration is oral, so this experiment used intragastric administration. Myricetin (purchased from Shanghai Chemical Co., Ltd. Item No. A0145, Myricetin; 3,5,7,3,4′,5′-hexahydroxyflavone, CAS No: 529-44-2. Pure and natural extracts, purity ismore than 98.5% confirmed by NMR and HPLC purity analysis) was modulated into a stick-like with distilled water. Dosed at […] body weight, gavage was conducted to the mice (about 200 mg myricetin per mouse). […]

[2] = test system: type II collagen-induced arthritis mice; experiment: Bovine type II collagen-induced arthritis in mice; type: in vivo
Procedure: Firstly, same strains and sources of animals as shown in Example 2 were selected, and total 105 of 9-week-old BALB / C mice were fed under the same conditions. There were 70 mice that each had subcutaneous injection of 200 ug of Freund's adjuvant emulsified bovine type II collagen. 15 days after the first immunization, subcutaneous injection was applied again at 200 ug per mouse with incomplete Freund's adjuvant emulsified bovine type H collagen to strengthen the immunity. After 24 days of the first injection, the 70 mice were divided into two groups, of which 35 mice were treated with myricetin intake orally 25 mg/kg body weight daily as a treated-group, while the other 35 were the model control group fed normally without myricetin. The remaining 35 mice were the normal control group without immunization and fed with normal food, used as a blank control.
Throughout the testing period, arthritis conditions of the mice and arthritic conditions after the treatment were observed. After immunization with type II collagen on mice, the conventional methods were used by measuring the degree of paw swelling (thickness) (see FIG. 3) and weight change (see FIG. 4), and myricetin therapeutic effects were monitored and evaluated throughout the procedure (0.5 mm increased thickness for one magnitude) (see FIG. 5).
On the 48 day, the blood from the heart was extracted, and the serum was separated, meanwhile all mice were killed. The mouse urinary deoxypyridinoline (urinary deoxypyridinoline) (see FIG. 6), type I collagen C telopeptide (CTX-I) (see FIG. 7) and serum cartilage oligomeric matrix protein (COMP) were examined, and histological treatment evaluation were conducted (see FIG. 8).
The mouse urinary deoxypyridinolineideoxypyridinoline kit (DPD kit from Shanghai Huyu Biotech Co., Ltd., No. HY-E3170B) was used. According to the instructions provided, iMark-BIO-RAD microplate reader (U.S. BIO-RAD) was used to detect the concentration of mouse urinary deoxypyridinoline at 450 wavelength (see FIG. 6).
Rat C-terminal peptide of type I collagen (CTX-I) ELISA Kit from Shanghai Jima Biotech Co., Ltd., NO Wk30026) was used. According to the method provided by the kit instruction, the change in the content of type I collagen C-terminal peptide in mice serum was detected to evaluate the effect that myricetin prevented type I collagen degradation by suppressing cathepsin K (see FIG. 7).
The cartilage oligomeric matrix protein ELISA kit (from Shanghai Yihan Biotech Co., Ltd., No. SU10580) was used.
After killing of the mice, the paws were fixed with 4% formaldehyde for 24 hours, then decalcificated using 500 mmol of EDTA […]. The paraffin sections were prepared using the conventional method and stained with hematoxylin / eosin staining method. […] The synovial surface almost disappeared with a rough surface in a grid pattern, and there were a large number of macrophages. […] It can be concluded that by myricetin therapeutic administration, the mice arthritis is mostly recovered (see FIG. 9).
Based on mice joint tissue sections, according to methods from Larsson et. al. (Rheumatology (Oxford), 2004, 43 (4),428-434),the therapeutic effect of myricetin on rheumatoid arthritis in mice was evaluated, as well as the degree of arthritis. Main evaluation were based on: (1) the size of the joint cavity, inflammatory cell infiltration, cartilage damage and fibrin deposition. From three individual evaluations, it was divided into three levels, which are 0 for normal, level 1 for the light degree of arthritis, level 2 for the moderate arthritis and level 3 for severe arthritis (see FIGS. 3 and 5). (2) The weight change (see FIG. 4). (3) histology examination (see FIG. 9) and evaluation (see FIGS. 10 and 11).

cathepsin K [3] = molecular target: T1, cathepsin K (Homo sapiens, UniProt P43235); experiment: Cathepsin K induced collagen degradation, SDS-PAGE screening; type: biochemical; design: made in house; host or cells: yeast cells (the cited Linnevers et al. method uses Pichia pastoris); settings: 100 uM myricetin, collagen type I/II substrate, pH 6.0, 37° C., 15 hours
T1 sequence (P43235 115-329): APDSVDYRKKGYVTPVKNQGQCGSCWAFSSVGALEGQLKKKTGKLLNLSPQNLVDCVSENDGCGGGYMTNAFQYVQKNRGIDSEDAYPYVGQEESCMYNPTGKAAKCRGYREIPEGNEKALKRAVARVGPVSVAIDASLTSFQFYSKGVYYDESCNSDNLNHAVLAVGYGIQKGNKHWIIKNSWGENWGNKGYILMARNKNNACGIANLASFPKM
Text: A series of Chinese herbal medicine of monomer myricetin were purchased from Shanghai Jingke Chemical Co., Ltd.,(Cat. No. A0145, 3,5,7,3′, 4′, 5′-hexahydroxyflavone, CAS No: 529-44-2). It was purified from natural plant (the purity is more than 98.5% confirmed by NMR and HPLC purity assay) and was used as an inhibitor candidate compound. Meanwhile, collagen type I (Cat No. SU2087) and collagen type II (Cat No. SU2088) were purchased from SIGMA and were used as a substrate for cathepsin K. For screening experiments, […] and 1 ug cathepsin K were added into 50 mM phosphate buffer (pH6.0), then myricetin compounds dissolved in 20% ethanol were added with the final concentrations of 100,200,500,1000 uM, respectively, finally an additional 50 mM of phosphate buffer (pH 6.0) was added again to bring a total volume of 500 uL. The reactions were incubated at 37° C. for 15 hours in a water bath. As a positive control without any candidate compound, 100 ug collagen, […], and 50 mM phosphate buffer solution (pH6.0) were added to bring a total volume of 500 uL. […] After completion of the reactions, the reaction samples were applied to 10% SDS-PAGE gel electrophoresis, coomassie blue staining and destaining, and the intensity of the stained protein bands were analyzed. […]

[4] = left in air; becomes green; cited from earlier work
cathepsin K [5] = molecular target: T1, cathepsin K; experiment: Cathepsin K activity with fluorogenic substrate HD-Ala-Leu-Lys-AMC; type: biochemical; design: made in house; settings: 100,200,500,1000 uM; fluorescence 390/460 nm; effect enhanced as concentration increased
Procedure: Using a Fluoroskan Ascent, recombinant cathepsin K inhibition ratios with different concentration of myricetin were calculated after completion of the reaction and the IC50 value was determined.
In order to determine the inhibitory effect of myricetin on cathepsin K activity, a cathepsin. K specific fluorogenic substrate HD-Ala-Leu-Lys-AMC (Cat. No. 104881-72-3, purchased from GL Biochem (Shanghai) Co., Ltd.) was used and Cary Eclipse fluorescence spectrophotometer (Agilent Technologies Inc., Beijing) for quantitative analysis was applied. 1 ug of cathepsin K-specific fluorogenic substrate HD-ALK-AMC, 1 ug cathepsin K, myricetin compounds dissolved in 20% ethanol with final concentrations of 100,200,500,1000 uM were added into 50 mM of phosphate buffer. An additional 50 mM of phosphate buffer (pH6.0) was added to bring a total volume of 500 uL. And the reaction sample was inhibited at 37° C. for 15 hours in a water bath. As a positive control without any candidate compound, 1 ug of cathepsin K specific fluorogenic substrate HD-ALK-AMC and 1 ug of cathepsin K, and 50 mmol phosphate buffer solution (pH6.0) were added to bring a total volume of 500 uL. […] After completion of the reaction, the samples were measured at 390 nm excitation wavelength and 460 nm emission wavelength for fluorescence intensity changes assay, and the value of cathepsin K activity was calculated.

In the case of `O=c1c(O)c(-c2cc(O)c(O)c(O)c2)oc2cc(O)cc(O)c12` [myricetin, 3,5,7-Trihydroxy-2-(3,4,5-trihydroxyphenyl)-4H-1-benzopyran-4-one], the “solubility in chloroform and petroleum” value ([1]; chloroform and petroleum) is listed as “insoluble”, the “solubility in methanol, ethanol, aceton, ethyl acetate” value ([1]; methanol, ethanol, aceton, ethyl acetate) is listed as “soluble” and the solubility in water ([1]; water) is listed as “slightly soluble”. The “symptoms of poisoning and death” value (BALB/C mice) was “free of any symptoms of poisoning”, the “arthritis symptoms (paw swelling, clinical score)” value ([2]; 25 mg/kg daily orally from day 24 to 48, vs immunized mice) was “significantly improved” and the degree of arthritis ([2]; 25 mg/kg p.o., compared with the model group, P<0.05) was “significantly reduced”. For the same compound, the “concentration of urinary deoxypyridinoline” value ([2]; 25 mg/kg p.o., day 48, ELISA, vs control group, P<0.001) was “significantly lower”, the “content of type I collagen C-terminal peptide in mice serum” value ([2]; 25 mg/kg p.o., day 48, ELISA, vs model control group, P<0.001) was “significantly lower” and the “content of cartilage oligomeric matrix protein in mice serum” value ([2]; 25 mg/kg p.o., day 48, ELISA, vs model control group, P<0.005) was “significantly lower”. The “synovial surface pathological changes (histology)” value ([2]; 25 mg/kg p.o., day 48, hematoxylin/eosin paw sections) was “significantly reduced pathological changes”, the “focal hyperplasia of the synovial lining cells” value ([2]; end of study, ankle joint sections, hematoxylin and eosin, FIG. 9) was “undetectable” and the “hind leg swelling and redness with ankle joint thickening” value ([2]; end of study, representative photographs, FIG. 9) was “attenuated”. The “inhibition of the cathepsin K activity (collagen degradation)” value (cathepsin K [3]) was “complete inhibition”, the stability to oxidation [4] was “easily oxidized” and the “inhibitory effect on cathepsin K activity” value (cathepsin K [5]) was “significant inhibitory effect”.
